The values below come from publication PMC11079024, “Identification of a family of species-selective complex I inhibitors as potential anthelmintics” (Nature Communications, 2024).

In test [1] the target is C. elegans (N2) complex I (NADH:ubiquinone oxidoreductase) (Caenorhabditis elegans, UniProt P24887+Q93873+Q94360). The experiment in a line: biochemical. The test is classed as biochemical. The settings on record: for activity at 0.0001 µM / activity at 0.0005 µM / activity at 0.001 µM / activity at 0.0025 µM / activity at 0.005 µM / activity at 0.013 µM / activity at 0.025 µM / activity at 0.063 µM / activity at 0.125 µM / activity at 0.313 µM / activity at 0.625 µM / activity at 1.5 µM / activity at 3 µM / activity at 15 µM / activity at 37.5 µM / activity at 75 µM: read-out: C. elegans mitochondrial complex I activity; for Log IC50 C. elegans complex I: log10 of IC50 in µM, C. elegans mitochondria. The gist of the method:
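Activity expressed as percent of solvent control. Complex I rate came from DCIP reduction at 600 nm (initial linear slope, 15 min) with NADH and decylubiquinone as substrates, plus antimycin A and KCN, in pH 7.5 KPi/BSA buffer. Isolated, thrice freeze-thawed mitochondria used at 0.2 mg/mL.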

Test [2] concerns the target B. taurus (heart) complex I (Bos taurus, UniProt P03887+P17694+P42026). Kind of test: biochemical. Conditions: for IC50: B. taurus heart mitochondria, estimated from fitted dose-response curves, read-out: B. taurus Complex I IC50; for activity at 0.0001 µM / activity at 0.0005 µM / activity at 0.001 µM / activity at 0.0025 µM / activity at 0.005 µM / activity at 0.013 µM / activity at 0.025 µM / activity at 0.063 µM / activity at 0.125 µM / activity at 0.313 µM / activity at 0.625 µM / activity at 1.5 µM / activity at 3 µM / activity at 15 µM / activity at 37.5 µM / activity at 75 µM: read-out: B. taurus mitochondrial complex I activity; for Log IC50 B. taurus complex I: log10 of IC50 in µM, B. taurus mitochondria. Format: biochemical. The gist of the method:
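Complex I activity followed as DCIP reduction (600 nm, 30 s reads, 15 min) with 80 μM NADH and 60 μM decylubiquinone in 25 mM KPi pH 7.5 containing 2 μM antimycin A and 2 mM KCN. Freeze-thawed mouse or bovine heart mitochondria at 0.2 mg/mL; initial-rate percent of solvent control, single-point 100 μM or dose-response.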

For another test, the system named is L1 wild-type C. elegans. Kind of test: microbe, parasite or virus in culture. The settings on record: Caenorhabditis elegans, read-out: C. elegans KCN Survival Assay LC50, estimated from fitted dose-response curves; mean of at least two biological replicates.
Where [3] appears, read: in vitro complex I dose response on C. elegans mitochondria, average of at least two biological replicates, fit in R (DRC), read-out: IC50 C. elegans complex I.
Setting [4] is: wild-type (N2) mitochondria, read-out: C. elegans Complex I IC50.
Setting [5] is: wild-type C. elegans mitochondria, estimated from fitted dose-response curves, read-out: C. elegans Complex I IC50.

Molecules are shown by their SMILES. Read-outs that look alike come from different tables or passages of the source.

Sequence of B. taurus (heart) complex I (P03887 whole entry): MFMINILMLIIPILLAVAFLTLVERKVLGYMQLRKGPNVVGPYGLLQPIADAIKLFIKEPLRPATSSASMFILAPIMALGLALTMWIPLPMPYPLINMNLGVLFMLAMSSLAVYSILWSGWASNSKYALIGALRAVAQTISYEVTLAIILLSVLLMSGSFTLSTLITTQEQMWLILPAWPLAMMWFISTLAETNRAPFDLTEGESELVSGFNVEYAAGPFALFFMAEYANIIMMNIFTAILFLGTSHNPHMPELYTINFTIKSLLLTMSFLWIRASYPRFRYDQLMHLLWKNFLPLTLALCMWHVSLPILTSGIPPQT
Sequence of B. taurus (heart) complex I (P17694 34-463): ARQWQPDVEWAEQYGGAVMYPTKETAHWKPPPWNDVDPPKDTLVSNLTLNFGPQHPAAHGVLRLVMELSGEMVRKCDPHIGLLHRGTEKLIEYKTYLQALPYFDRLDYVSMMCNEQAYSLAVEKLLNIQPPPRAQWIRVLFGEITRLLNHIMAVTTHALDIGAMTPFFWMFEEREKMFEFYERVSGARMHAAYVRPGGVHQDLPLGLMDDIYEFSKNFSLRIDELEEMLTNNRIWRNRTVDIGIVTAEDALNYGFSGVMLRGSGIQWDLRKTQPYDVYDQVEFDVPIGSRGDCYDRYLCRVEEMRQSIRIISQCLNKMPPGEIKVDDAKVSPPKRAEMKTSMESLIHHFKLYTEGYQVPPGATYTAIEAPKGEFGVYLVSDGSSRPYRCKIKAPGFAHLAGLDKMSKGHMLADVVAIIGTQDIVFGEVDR
Sequence of B. taurus (heart) complex I (P42026 38-216): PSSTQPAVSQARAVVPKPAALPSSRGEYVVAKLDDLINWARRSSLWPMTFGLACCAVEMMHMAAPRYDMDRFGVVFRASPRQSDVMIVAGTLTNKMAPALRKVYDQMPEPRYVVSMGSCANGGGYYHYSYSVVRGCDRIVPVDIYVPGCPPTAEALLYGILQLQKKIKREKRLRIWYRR
Sequence of C. elegans (N2) complex I (NADH:ubiquinone oxidoreductase) (Q94360 17-199): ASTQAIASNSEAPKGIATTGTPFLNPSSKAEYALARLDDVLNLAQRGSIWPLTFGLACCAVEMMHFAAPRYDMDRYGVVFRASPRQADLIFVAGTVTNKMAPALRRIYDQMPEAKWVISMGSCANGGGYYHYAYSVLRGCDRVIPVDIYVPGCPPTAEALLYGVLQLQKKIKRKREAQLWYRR
Sequence of C. elegans (N2) complex I (NADH:ubiquinone oxidoreductase) (P24887 whole entry): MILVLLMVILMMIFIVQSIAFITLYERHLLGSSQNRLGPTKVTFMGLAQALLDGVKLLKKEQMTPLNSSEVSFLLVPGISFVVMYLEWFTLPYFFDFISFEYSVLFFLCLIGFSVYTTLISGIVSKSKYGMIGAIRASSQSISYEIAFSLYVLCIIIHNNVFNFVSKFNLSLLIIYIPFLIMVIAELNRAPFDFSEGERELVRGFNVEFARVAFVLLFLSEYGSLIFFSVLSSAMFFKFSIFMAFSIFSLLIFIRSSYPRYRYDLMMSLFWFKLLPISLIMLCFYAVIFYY
Sequence of C. elegans (N2) complex I (NADH:ubiquinone oxidoreductase) (Q93873 31-482): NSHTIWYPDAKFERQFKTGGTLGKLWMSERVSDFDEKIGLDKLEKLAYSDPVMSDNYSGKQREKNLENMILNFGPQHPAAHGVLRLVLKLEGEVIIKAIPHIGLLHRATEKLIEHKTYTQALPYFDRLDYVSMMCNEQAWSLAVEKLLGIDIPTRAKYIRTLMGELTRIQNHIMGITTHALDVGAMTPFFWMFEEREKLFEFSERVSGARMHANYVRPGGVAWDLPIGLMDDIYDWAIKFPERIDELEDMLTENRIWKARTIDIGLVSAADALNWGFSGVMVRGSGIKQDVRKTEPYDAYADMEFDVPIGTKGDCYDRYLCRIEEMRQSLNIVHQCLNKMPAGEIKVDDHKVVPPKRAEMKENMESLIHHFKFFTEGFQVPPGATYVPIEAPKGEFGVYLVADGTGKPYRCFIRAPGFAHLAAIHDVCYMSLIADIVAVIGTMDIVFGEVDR

Take `Cc1ccc(SCCCCn2cnc3ccccc32)cc1` [Compound 7925333]: in test [1], the activity at 0.0001 µM worked out at 91.6%, the activity at 0.0005 µM turned out to be 94.2%, the activity at 0.001 µM was determined as 101% and the activity at 0.0025 µM was determined as 95.1%. Further, in test [1], the activity at 0.005 µM was determined as 100%, the activity at 0.013 µM was 91.2%, the activity at 0.025 µM was determined as 93.7% and the activity at 0.063 µM was found to be 96.6%. Besides, in test [1], the activity at 0.125 µM amounted to 81%, the activity at 0.313 µM came to 64.2%, the activity at 0.625 µM stood at 65.6% and the activity at 1.5 µM worked out at 44%. Also, in test [1], the activity at 3 µM worked out at 28.6%, the activity at 15 µM was 10.5%, the activity at 37.5 µM was 5.81% and the activity at 75 µM turned out to be 7.08%. In addition, the “Log IC50 C. elegans complex I” value in test [1] is listed as 0.017 µM. The half-maximal inhibitory concentration (IC50) in test [1] (setting [3]) was 1040 nM. The concentration for half-maximal inhibition (IC50) in test [1] (setting [4]) was 1040 nM. Moreover, the IC50 in test [1] (setting [5]) was 1040 nM. Besides, in test [2], the IC50 is 7310 nM, the activity at 0.0001 µM is 90.9%, the activity at 0.0005 µM turned out to be 87.2% and the activity at 0.001 µM amounted to 87.5%. In test [2], the activity at 0.0025 µM amounted to 83.2%, the activity at 0.005 µM is 83.9%, the activity at 0.013 µM is 89.8% and the activity at 0.025 µM amounted to 94.2%. Also, in test [2], the activity at 0.063 µM was 97.7%, the activity at 0.125 µM was found to be 99.3%, the activity at 0.313 µM stood at 99.3% and the activity at 0.625 µM amounted to 90.8%. In test [2], the activity at 1.5 µM turned out to be 78.5%, the activity at 3 µM is 70%, the activity at 15 µM stood at 25.1% and the activity at 37.5 µM turned out to be 9.48%. Further, in test [2], the activity at 75 µM is 1.13% and the “Log IC50 B. taurus complex I” value came to 0.86 µM. Besides, the 50% lethal concentration (LC50) in the test on L1 wild-type C. elegans is 7760 nM.

With `Cc1ccc(C(C)C)c(OCC(O)Cn2cnc3ccccc32)c1` (stereo not shown) [Compound 6093301], in test [1], the activity at 0.0001 µM was determined as 99.6%, the activity at 0.0005 µM was determined as 97.6%, the activity at 0.001 µM was 98.6% and the activity at 0.0025 µM is 105%. In test [1], the activity at 0.005 µM was determined as 96.1%, the activity at 0.013 µM was determined as 93.6%, the activity at 0.025 µM was determined as 90.6% and the activity at 0.063 µM was determined as 81.2%. For the same compound, in test [1], the activity at 0.125 µM amounted to 72.6%, the activity at 0.313 µM turned out to be 50.3%, the activity at 0.625 µM is 38.5% and the activity at 1.5 µM came to 20.3%. Also, in test [1], the activity at 3 µM came out at 11.5%, the activity at 15 µM was determined as 1.13%, the activity at 37.5 µM was determined as 0% and the activity at 75 µM is 0%. Also, the “Log IC50 C. elegans complex I” value in test [1] is on record as -0.44 µM. Besides, in test [1] (setting [3]), the IC50 was 360 nM. In addition, the IC50 in test [1] (setting [5]) was 360 nM. Also, in test [2], the concentration for half-maximal inhibition (IC50) was 2070 nM, the activity at 0.0001 µM was determined as 94.9%, the activity at 0.0005 µM is 95.3% and the activity at 0.001 µM amounted to 95.9%. Also, in test [2], the activity at 0.0025 µM came out at 100%, the activity at 0.005 µM was determined as 99.5%, the activity at 0.013 µM was 100% and the activity at 0.025 µM was 96.1%. Besides, in test [2], the activity at 0.063 µM stood at 94%, the activity at 0.125 µM turned out to be 90%, the activity at 0.313 µM was 81.5% and the activity at 0.625 µM amounted to 75.8%. Besides, in test [2], the activity at 1.5 µM came out at 60.4%, the activity at 3 µM was 45.2%, the activity at 15 µM amounted to 18% and the activity at 37.5 µM amounted to 13.4%. In test [2], the activity at 75 µM was determined as 11.2% and the “Log IC50 B. taurus complex I” value was 0.32 µM. The LC50 with L1 wild-type C. elegans is 19800 nM.

For the compound `Brc1ccc(Cn2cnc3ccccc32)cc1` [Compound 5542661], the IC50 in test [1] (setting [3]) was 530 nM; in test [1] (setting [4]) it was 530 nM; in test [1] (setting [5]) it was 530 nM; in test [2], 3350 nM. Besides, in test [1], the “Log IC50 C. elegans complex I” value is -0.28 µM. The “Log IC50 B. taurus complex I” value in test [2] is 0.53 µM. For the same compound, in the test with L1 wild-type C. elegans, the LC50 was 7750 nM.

Take `Cc1nc2ccccc2n1Cc1ccccc1Cl` [Compound 6707368]: the IC50 in test [1] (setting [3]) is 560 nM; in test [1] (setting [4]) it was 560 nM; in test [1] (setting [5]), 560 nM; in test [2] it was 3960 nM. Further, the “Log IC50 C. elegans complex I” value in test [1] is on record as -0.25 µM. In addition, in test [2], the “Log IC50 B. taurus complex I” value stood at 0.60 µM. Further, the LC50 with L1 wild-type C. elegans is 8240 nM.
